Literature values in patent US7485688B2, “Water and oil producing composition” (priority 2004, dated 2009).

tested on: rats or mice; conditions: acute oral toxicity in rats or mice

In the case of `CC(=O)OC(C)(N=NC(C)(OC(C)=O)c1ccccc1)c1ccccc1` (centres unmarked) [1,1-azobis(1-acetoxy-1-phenylethane)], the LD50 is listed as no less than 5000 mg/kg.

Point of comparison: `CCC(C)(C#N)N=NC(C)(C#N)CC` (centres unmarked) [2,2′-azobis-2-methylbutyronitrile], LD50 1316 mg/kg. Against it:
- N#CC1(N=NC2(C#N)CCCCC2)CCCCC1 [1,1′-azobis(2-cyclohexane-1-carbonitrile)] — 9-fold higher, 11800 mg/kg
- CC(C)CC(C)(C#N)N=NC(C)(C#N)CC(C)C (centres unmarked) [2,2′-azobis(2,4-dimethylvaleronitrile)] — 4.6-fold higher, 6000 mg/kg
- COC(=O)C(C)(C)N=NC(C)(C)C(=O)OC [dimethyl 2,2′-azobisisobutyrate] — 1.8-fold higher, 2369 mg/kg
